Data: article PMC3407934, “Functional Expression in Escherichia coli of the Disulfide-Rich Sea Anemone Peptide APETx2, a Potent Blocker of Acid-Sensing Ion Channel 3” (Marine Drugs, 2012)
“Also recorded” adds a separate entry of the source. Where two headings read alike, the source gives them in different places. Positions of bridges follow the written chain, without caps; N, C: chain ends. No end group written: not given here.

Columns and labels:
[1] = system: ASIC3; details: cited from earlier work; for potency and specificity of ASIC3 inhibition (in words): statement on the majority of currently known inhibitors of ASIC3
From the text: Acid-sensing ion channels (ASICs) are proton-gated sodium channels present in the central and peripheral nervous system of chordates. ASIC3 is highly expressed in sensory neurons and plays an important role in inflammatory and ischemic pain. Thus, specific inhibitors of ASIC3 have the potential to be developed as novel analgesics. […] However, the mechanism of action of APETx2 and the molecular basis for its interaction with ASIC3 is not known. In order to assis ... || The pharmacology of ASIC3 is still relatively poorly understood when compared with voltage-gated sodium (NaV) and calcium (CaV) channels. Thus, the characterization of, and development of structure-activity relationships for, selective ASIC3 modulators will be useful for characterizing the function of ASIC3 under both normal and pathophysiological conditions.

[2] = system: NaV1.8; details: cited from earlier work
From the text: The pharmacology of ASIC3 is still relatively poorly understood when compared with voltage-gated sodium (NaV) and calcium (CaV) channels. Thus, the characterization of, and development of structure-activity relationships for, selective ASIC3 modulators will be useful for characterizing the function of ASIC3 under both normal and pathophysiological conditions.

[3] = system: acid-induced and post-operative pain in rats; design: method as in PMID 18923424, PMID 21508231, PMID 20860671; details: cited from earlier work
[4] = system: ASIC3-containing channels (ASIC3, ASIC3/1a, ASIC3/1b, ASIC3/2b); details: cited from earlier work
From the text: (§1) The pharmacology of ASIC3 is still relatively poorly understood when compared with voltage-gated sodium (NaV) and calcium (CaV) channels. Thus, the characterization of, and development of structure-activity relationships for, selective ASIC3 modulators will be useful for characterizing the function of ASIC3 under both normal and pathophysiological conditions. […] The majority of currently known inhibitors of ASIC3 (e.g., gadolinium, a ...

[5] = system: rodent pain models; details: cited from earlier work
From the text: as §1

[6] = target: T1, rat ASIC3 (Rattus norvegicus, UniProt O35240); assay: Inhibition of homomeric rat ASIC3 currents in Xenopus oocytes (two-electrode voltage clamp); assay type: cell-based; details: rat ASIC3 in Xenopus laevis oocytes; pH drop from 7.4 to 6.0 every minute; -60 mV; RT (18–21 °C); ND96 with 0.1% BSA; pH 6 stimulus buffered with MES
T1 construct: expressed in transfected cells; host or cells: Xenopus laevis oocytes (cRNA injection)
T1 sequence (O35240 1-533): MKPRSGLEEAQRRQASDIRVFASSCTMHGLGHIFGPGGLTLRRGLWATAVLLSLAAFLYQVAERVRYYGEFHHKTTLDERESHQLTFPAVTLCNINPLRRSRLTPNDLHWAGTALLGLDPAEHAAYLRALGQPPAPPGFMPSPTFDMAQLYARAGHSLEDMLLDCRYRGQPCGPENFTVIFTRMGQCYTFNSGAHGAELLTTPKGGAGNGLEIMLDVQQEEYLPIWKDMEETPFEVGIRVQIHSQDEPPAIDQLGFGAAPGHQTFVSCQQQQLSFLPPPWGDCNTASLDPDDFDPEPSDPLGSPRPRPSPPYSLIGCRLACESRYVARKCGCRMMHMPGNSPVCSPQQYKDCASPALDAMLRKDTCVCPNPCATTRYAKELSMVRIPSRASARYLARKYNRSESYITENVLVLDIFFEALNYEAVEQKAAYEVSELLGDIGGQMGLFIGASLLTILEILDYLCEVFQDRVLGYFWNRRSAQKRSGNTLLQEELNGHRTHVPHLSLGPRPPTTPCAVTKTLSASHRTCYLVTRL
Protocol: The efficacy of rAPETx2 was tested on rat ASIC3 expressed in Xenopus laevis oocytes.
Figure 4 (A) Representative current traces comparing the concentration-dependent inhibition of rat ASIC3 (expressed in Xenopus oocytes) by synthetic (s) and recombinant (r) APETx2. (B) Concentration-effect curves for sAPETx2 and an rAPETx2–F15A mutant.
Oocytes were obtained from Xenopus laevis and defolliculatd by treatment with collagenase (Sigma type I). Rat ASIC3 cRNA was synthesised using an mMessage mMachine cRNA transcription kit and healthy stage V–VI oocytes injected with 4 ng rat ASIC3 cRNA (40 nL of 100 ng/μL). Oocytes were kept at 17 °C in ND96 solution (96 mM NaCl, 2 mM KCl, 1 mM CaCl2, 2 mM MgCl2, 5 mM HEPES, 5 mM pyruvic acid, 50 µg/mL gentamicin, 2.5% fetal horse serum, pH 7.4). Membrane currents were recorded 2–6 days post cRNA injection under voltage-clamp (Axoclamp 900A amplifier, Molecular Devices, Sunnyvale, CA, USA) using two standard glass microelectrodes with resistances of 0.5–1 MΩ when filled with 3 M KCl solution. Data acquisition and analysis were performed using pCLAMP software (Version 10, Molecular Devices, Sunnyvale, CA, USA). Oocytes were clamped at −60 mV with data sampled at 1000 Hz and filtered at […]. All experiments were performed at RT (18–21 °C) in ND96 solution containing 0.1% fatty acid free-bovine serum albumin (BSA). […]

## Cc1nc(NC(=N)N)nc2ccccc12 [GMQ, 2-guanidine-4-methylquinazoline]
[1]; normal pH
  ASIC3 agonism (in words): persistent activation at normal pH

## N=C(N)NC(=O)c1nc(Cl)c(N)nc1N [amiloride]
[1]
  potency and specificity of ASIC3 inhibition (in words): neither potent nor specific

## [Gd] [gadolinium]
[1]
  potency and specificity of ASIC3 inhibition (in words): neither potent nor specific

## APETx2
[2]
  inhibition of NaV1.8 (in words): inhibits NaV 1.8
[2]; compared with ASIC3
  potency on NaV1.8 relative to ASIC3 (in words): lower potency than for ASIC3
[3]
  effect on acid-induced and post-operative pain (in words): abolish acid-induced and post-operative pain in rats
[1]; ASIC3 / ASIC3-containing channels
  potency and selectivity for ASIC3 (in words): most potent and selective inhibitor of ASIC3-containing channels; also recorded: only known potent and selective inhibitor of ASIC3; also recorded: specific peptide blocker of ASIC3
[4]; homomeric ASIC3, read-out: IC50 for homomeric ASIC3
  IC50: ~60 nM
[4]; upper end of range, depending on the subunit composition of the channel, read-out: IC50 for ASIC3-containing channels (upper end)
  IC50: ≤ 2000 nM
[5]
  analgesic effect in rodent pain models (in words): analgesic in rodent pain models

## GTACSCGNSKGIYWFYRPSCPTDRGYTGSCRYFLGTCCTPAD (disulfide 4-37, 6-30, 20-38) [rAPETx2]
[6]
  IC50: 80 nM
